From patent publication US20170266182A1, “Treatment of IgG-Immune Complex-Mediated Organ Damage” (The Brigham and Women's Hospital, Inc., priority 2014, published 2017)

Legend:
FcγRIIA [1] = test: Immobilized immune complex (IC)-induced ROS generation in FcγRIIA+/γ-/- mouse bone marrow neutrophils (high-throughput screen); type: cell-based; conditions: for ROS RLU ratio: compound at 1.1 μM, mouse BMN ROS induced by immobilized IC
Method: Screen of 8,483 compounds was done in collaboration with the Institute of Chemistry and Cell Biology Screening facility at Harvard Medical School (ICCB/Longwood). Each compound was dissolved in DMSO at a concentration of […]. For the primary screen, wells were coated with immune complexes as follows: 0.1 mg/mL poly-L-lysine (Sigma) followed by 2.5% glutaraldehyde were dispensed onto 384-well format black plate (Corning), and the plate was washed once with DDW and twice with PBS, incubated with 100 μL 1 mg/ml bovine serum albumin (BSA) followed by 100 μL 40 μg/mL rabbit anti-BSA antibody to generate in situ immune complexes (IC). Mature murine neutrophils isolated from the bone marrow of FcγRIIA+/γ^-/- mice as previously described, were suspended in 100 uM homovanillic acid/5 U/ml peroxidase IV (Sigma)/1 mM EDTA/HBSS (Thermo) assay solution (pH 7.5) and 3×10^4 cells in 30 μL were loaded per well into a 384-well format plate using a Wellmate automated dispenser (Thermo Scientific). Immediately after dispensing cells, ICCB library compounds dissolved in 33 nL DMSO were dispensed into wells using a Compound Transfer Robot (Epson). The plates were placed in a humidified incubator at 37 C for 60 mins and then fluorescence levels were read out at Ex/Em 321/421 nm with Envision2 (PerkinElmer). PP2 (Sigma), a Src inhibitor known to down-regulate FcγRIIA signal, and DMSO were used as positive and negative control, respectively. All the experiments were performed in duplicate.
An automated high-throughput drug screen in primary neutrophils from mice expressing FcγRIIA on neutrophils and lacking all their endogenous activating murine FcγRs (FcγRIIA^+/γ^-/-) was established to identify compounds that inhibit the activity of FcγRIIA. Immune complex (IC)-induced reactive oxygen species (ROS) generation served as our read-out of FcγRIIA activity. An appropriate positive (PP2, an inhibitor of the FcγR proximal Src-family kinase) and negative (DMSO, vehicle) control was included in the assay. The screen of 8,483 compounds, used at 10 μM in DMSO, yielded 84 hits (1% hit rate) that were defined as those that have an inhibitory potential that is ≧95% of PP2 (FIG. 1A). Of the 30 compounds cherry picked for a secondary screen, ten compounds were identified as having an ability to inhibit neutrophil FcyRIIA induced ROS generation at even lower concentrations (i.e., 1.1 μM or less) (Table 1).

[2] = test system: FcγRIIA+/γ-/-/Mac-1-/- mice; test: Human lupus serum induced kidney injury model; type: in vivo, mouse
Method: Human serum samples were obtained from the Lupus Clinic at the Beth Israel Deaconess Medical Center from patients with SLE diagnosed according to the classification criteria of the American College of Rheumatology as previously described^13. Informed consent was obtained from all patients and healthy donors under a Beth Israel Deaconess Medical Center Institutional Review Board-approved protocol. FcγRIIA+/γ^-/-/Mac1-mice were injected s.c. in both flanks with 2.5 μg human IgG (Jackson ImmunoResearch Laboratories) in CFA (Thermo Scientific and Difco) on day-3. On days 0 and 2, 200 μl sterile serum was injected i.v. The mice were given an oral administration of Bosutinib (150 mg/kg) or a vehicle solution every 24 hrs from day 0 to 14. Spot urine samples and peripheral blood were collected at indicated time points after human serum injection. Both kidneys from euthanized mice were harvested for histological analysis at day 10 or 14. […]

neutrophils = test: Cell viability by Annexin V and propium iodide; type: cell-based; conditions: range of concentrations
[3] = mice, gavage; cited from earlier work
FcγRIIA [4] = test: FcγRIIA cross-linking induced ROS generation in FcγRIIA+/γ-/- mouse BMNs (luminol); type: cell-based; conditions: 100 nM, FIG. 4A
Method: 10^6 BMNs were suspended in PBS without Ca^2+/Mg^2+, and then incubated with 10 μg/ml mouse anti-hFcγRIIa (clone IV.3; StemCell Technologies) on ice for 30 minutes. After washing in PBS, cells were incubated with or without 500 ng/ml mGM-CSF (BioLegend) for 30 minutes. After pretreated with Bosutinib at indicated concentrations or DMSO at 37 C for 30 minutes, luminol (50 μM) in PBS with Ca^2+/Mg^2+ was added, followed immediately by the addition of goat anti-mouse F(ab′)2 (36 μg/ml; Jackson ImmunoResearch). ROS generation (expressed in relative light units) was continuously monitored over time using a 6-channel bioluminat LB-953 luminometer (Berthold). For human PMNs, 5×10^5 cells were analyzed without GM-CSF pretreatment.

With `Cc1n[nH]c2ccc(-c3cncc(OC[C@@H](N)Cc4c[nH]c5ccccc45)c3)cc12` [A-443654] the “ROS RLU ratio” value (FcγRIIA [1]) was 0.266.

For `COc1cc(Nc2c(C#N)cnc3cc(OCCCN4CCN(C)CC4)c(OC)cc23)c(Cl)cc1Cl` [Bosutinib], the “ROS RLU ratio” value (FcγRIIA [1]) was 0.033, the IC50 (FcγRIIA [1]; mouse BMNs, FIG. 1C) was ~50 nM and the “Total leukocyte and neutrophil counts versus vehicle” value ([2]; hemocytometric analysis, day 14) was “comparable”. The Hb ([2]; peripheral blood, day 14, AVE) was 7.98 g/dL, the Neu % ([2]; peripheral blood, day 14, AVE) was 25.64% and the Neu total ([2]; peripheral blood, day 14, AVE) was 0.7506 K/ul. For the same compound, the Plt total ([2]; peripheral blood, day 14, AVE) was 949.8 K/ul, the RBC ([2]; peripheral blood, day 14, AVE) was 7.98 M/ul and the WBC total ([2]; peripheral blood, day 14, AVE) was 2.656 K/ul. For the same compound, the Cell viability (neutrophils) was “did not affect cell viability” and the “Time of peak blood concentration” value [3] was 2 to 4 h.

In the case of `CN(C)CCCn1cc(C2=C(c3c[nH]c4ccccc34)C(=O)NC2=O)c2ccccc21` [GF109203X], the “ROS RLU ratio” value (FcγRIIA [1]) is reported as 0.338.

In the case of `Cc1cn(-c2cc(NC(=O)c3ccc(C)c(Nc4nccc(-c5cccnc5)n4)c3)cc(C(F)(F)F)c2)cn1` [Nilotinib], the “Neutrophil ROS generation induced by FcγRIIA cross linking” value (FcγRIIA [4]) is reported as “reduced” and the “Potency compared to Bosutinib in FcγRIIA cross linking ROS” value (FcγRIIA [4]) is reported as “lower”.

In the case of `CN(c1ccccc1CNc1nc(Nc2ccc3c(c2)CC(=O)N3)ncc1C(F)(F)F)S(C)(=O)=O` [PF431396], the “ROS RLU ratio” value (FcγRIIA [1]) is reported as 0.301.

With `Cn1cc(C2=C(c3cn(CCCSC(=N)N)c4ccccc34)C(=O)NC2=O)c2ccccc21` [Ro 31-8220] the “ROS RLU ratio” value (FcγRIIA [1]) was 0.778.
